# Measurements published in patent publication US12226393B2, “Neuroprotective compounds for amyotrophic lateral sclerosis” (THE JOHNS HOPKINS UNIVERSITY, priority 2019, dated 2025).
# Entries after “also recorded” stand apart in the source; their conditions may differ. Read-outs that look alike come from different tables or passages of the source.
# What was measured:
# [1] = test system: control hiPSC-A/-MN co-cultures; test: Multielectrode array (MEA) recording of control hiPSC-A/-MN co-cultures; format: cell-based, human; settings: for hiPSC-Neuron spike activity: co-cultured 1 week
# Source text: (§1) Multi-electrode array culture and recordings: Multi-electrode array (MEA) plates (MultiChannel Systems, 60MEA200/30iR-Ti-gr,) with 60 electrodes, including 59 active and 1 reference, and a MEA2100 (MultiChannel Systems) platform were used for the recording of neuronal activity in hiPSC-A/-MN co-cultures as we have previously described^50. Briefly, hiPSC-A from healthy subjects and ALS patients and hiPSC-MN from a single control line were serially co-cultured at densities of 100,000 cells/plate and 500,000 cells/plate, respectively. We analyzed the following electrophysiological parameters: spike rate, burst rate, and percentage of spiking and bursting electrodes (on the overall 59 recording electrodes). The recording of the baseline activity of MEA plates was performed every 3 days over 1-minute period for 2 weeks after initial plating. For pharmacological assays, we performed 5 minutes recordings to capture slower electrophysiological effects of HC blockers 36: baseline MEA activity for 1 minute, activity for 1 minute after 100 μl medium exchange with drug vehicle, and activity for 3 minutes after the exchange of 100 μl of medium containing the compound of interest and the drug vehicle. For analysis purposes, we considered only the electrodes with spike rate >0. Spiking and bursting activity is expressed as the mean of individual MEA plates.
# [2] = in vivo studies; cited from earlier work
# [3] = in vivo; cited from earlier work
# [4] = test system: FALS and SALS hiPSC-A/MN co-culture; test: hiPSC-astrocyte / hiPSC-motor neuron direct co-culture, neuron survival by immunostaining; format: cell-based, human; settings: for neuroprotection of control hiPSC-MN in co-culture with ALS hiPSC-A: 3 days
# Procedure: (§2) Human iPSC-astrocyte and hiPSC-motor neuron co-culture: Human iPSC-A form healthy subjects and ALS patients were cultured for 86 DIV and then plated in 24 well plates on glass cover-slips at a density of 20,000 cells/well. Four days later, hiPSC-MN from control samples, cultured for 60 DIV prior to use, were plated on the top of astrocytes at a density of 50,000 cells/well. This was considered day 1 of co-culture. Co-cultures were maintained in motor neuronal medium enriched with 1% FBS for a total of 14 days before fixing for immunocytochemistry. Co-culture medium was changed every third day with half medium exchange. For pharmacological assays on Cx43 HC, we used GAP19 (Tocris, 53533) at a concentration of 340 μM^21,50 and tonabersat (SB-220453) at concentrations of 1 μM, 10 μM and 100 μM^7,8 (Millipore Sigma, SML1354).
# [5] = test system: ALS hiPSC-A / control hiPSC-MN co-cultures; test: MEA recording of ALS hiPSC-A co-cultured with control hiPSC-MN; format: cell-based, human; settings: for ALS astrocyte-mediated hyperexcitability (neuronal spiking and bursting activity): 10 μM, within 5 minutes
# Source text: as §1
# [6] = in vivo, cited from earlier work
# control hiPSC-MN = test: Survival of control hiPSC-MN alone or co-cultured with control hiPSC-A; format: cell-based, human; settings: several concentrations; hiPSC-MN alone or in co-culture with control hiPSC-A
# Procedure: Human iPSC-motor neuron culture: Briefly, NPC differentiated with the aforementioned spinal cord patterning protocol were cultured for up to 60 DIV with “neuronal differentiating medium”^58,59. To prevent astrocyte overproliferation, neuronal cultures were treated once with 0.02 μM cytosine arabinoside (Ara-C) (Millipore Sigma) for 48 h. While the majority of these cells are Tuj1+/ChAT+, consistent with a spinal motor neuronal phenotype, a smaller subset of neurons (Tuj1+/ChAT−) is also present and consists mainly of GABAergic interneurons^58.
# as §2
# [7] = target: T1, connexin 43 (Cx43) gap junctions (Homo sapiens, UniProt P17302); settings: cited from earlier work
# T1 construct: host or cells: astrocyte cancer cell co-cultures
# T1 sequence (P17302 2-382 limits assumed, species assumed): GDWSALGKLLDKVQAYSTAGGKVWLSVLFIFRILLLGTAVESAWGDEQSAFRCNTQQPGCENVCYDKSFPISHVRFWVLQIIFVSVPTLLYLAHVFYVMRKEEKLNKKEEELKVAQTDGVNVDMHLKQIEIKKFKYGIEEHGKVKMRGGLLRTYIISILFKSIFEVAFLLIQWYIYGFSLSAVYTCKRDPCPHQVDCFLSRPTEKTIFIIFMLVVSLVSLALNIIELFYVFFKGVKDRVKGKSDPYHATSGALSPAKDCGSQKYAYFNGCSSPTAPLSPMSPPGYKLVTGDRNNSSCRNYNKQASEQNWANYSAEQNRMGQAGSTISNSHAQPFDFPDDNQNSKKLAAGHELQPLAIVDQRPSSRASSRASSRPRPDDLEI
# [8] = cited from earlier work; for tolerability / safety: humans, phase II clinical trials
# Cx43 HC = Cx43 HC (Homo sapiens, UniProt P17302); settings: cited from earlier work
# Sequence of Cx43 HC (P17302 2-382 limits assumed): as the sequence (P17302 2-382 limits assumed, species assumed) above
# hiPSC-MN alone = test: MEA recording of hiPSC-MN alone in culture; format: cell-based, human; settings: 10 μM
# [9] = test system: transwell co-culture of FALS and SALS hiPSC-A with hiPSC-MN; test: hiPSC-astrocyte / hiPSC-motor neuron transwell co-culture, neuron survival by immunostaining; format: cell-based, human
# Procedure: Human iPSC-astrocyte and hiPSC-motor neuron co-culture in a transwell system: Human iPSC-MN from control samples were cultured for 56 DIV and then plated in 12 well plates on glass coverslips at a density of 250,000 cells/well. […] Four days later, the inserts with 90 DIV astrocytes were placed on the top of 12-well plates with 60 DIV motor neurons at the bottom. This was considered day 1 of “transwell” co-cultures. Half medium exchanges were performed from both the top and the bottom compartments. Transwell co-culture were otherwise maintained as conventional co-cultures and neurons on glass coverslips were fixed for immunocytochemistry after 14 days.
# brain metastases = settings: xenograft and immunocompetent models; cited from earlier work
# [10] = test system: rodent SOD1^G93A astrocyte-induced toxicity; test: ALS astrocyte-induced MN toxicity, rodent model of ALS; format: cell-based
# gap junction channels = settings: cited from earlier work
compound,measurement,setting,value
"CC(=O)c1ccc2c(c1)[C@H](NC(=O)c1ccc(F)c(Cl)c1)[C@H](O)C(C)(C)O2 [tonabersat, N-[(3S,4S)-6-acetyl-3-hydroxy-2,2-dimethyl-3,4-dihydro-2H-1-benzopyran-4-yl]-3-chloro-4-fluorobenzamide]",neuronal spiking and bursting activity,"[1]; 1 μM, 5 minutes after application, compared with 10 μM",less effective
same,hiPSC-Neuron spike activity,"[1]; 10 μM, 1 minute after application",reduction of hiPSC-Neuron spike activity
same,neuronal spiking and bursting activity,"[1]; 10 μM, within 5 minutes of application",significantly reduced neuronal spiking and bursting activity
same,hiPSC-Neuron spike activity,"[1]; 100 μM, 1 minute after application",reduction of hiPSC-Neuron spike activity
same,"hiPSC-Neuron spike rate, burst rate, number of electrodes firing and bursting",[1]; hiPSC-Astro/Neuron co-culture,"reduced hiPSC-Neuron spike rate, burst rate, number of electrodes firing and bursting"
same,hiPSC-Neuron firing,"[1]; hiPSC-Astro/Neuron co-culture, 1 and 5 minutes after application",reduced hiPSC-Neuron firing
same,seizures,[2],inhibitory effects
same,neurogenic extravasation of plasma protein in the meninges,[3],reduce neurogenic extravasation of plasma protein in the meninges
same,rescue of ChAT MNs,"[4]; 1 μM, direct co-culture, 14 days",rescues ChAT MNs
same,neuroprotection of control hiPSC-MN in co-culture with ALS hiPSC-A,"[4]; 10 μM, early (day 5 to day 8 of co-culture)",neuroprotection of control hiPSC-MN; also recorded: Significant neuroprotection
same,neuroprotection of control hiPSC-MN in co-culture with ALS hiPSC-A,"[4]; 10 μM, late (day 11 to day 14 of co-culture)",This protection did not occur; also recorded: Significant neuroprotection was appreciated after early but not late exposure
same,rescue of ChAT MNs,"[4]; 10 μM, direct co-culture, 14 days",rescues ChAT MNs
same,neuroprotection of hiPSC-MN,"[4]; 100 μM, direct co-culture, 14 days",not neuroprotective
same,protection of non-MN populations (ChAT− and Isl1− neurons),[4]; direct co-culture with FALS and SALS hiPSC-A,protective to non-MN populations; also recorded: can be rescued with tonabersat
same,"neuroprotection of hiPSC-MN (ChAT, Isl-1) from ALS astrocyte-mediated death","[4]; direct co-culture, 1 μM, 10 μM and 100 μM, 14 day incubation",can protect MNs from ALS astrocyte-induced excitotoxicity; also recorded: protects hiPSC-MN from ALS astrocyte-mediated death in a dose-dependent manner; also recorded: dose-dependent neuroprotection
same,levels of spiking and bursting activity after treatment versus untreated control co-cultures,"[5]; 10 μM acute treatment, day 6 of co-culture",not significantly different
same,ALS astrocyte-mediated hyperexcitability (neuronal spiking and bursting activity),[5]; day 6 of co-culture,significantly reduced
same,ALS astrocyte-mediated hyperexcitability (neuronal spiking and bursting activity),"[5]; day 6 of co-culture, listed as Tonabersat",significant inhibition
same,concentration necessary to reduce ALS hiPSC-astrocyte mediated neuron spike activity,"[5]; MEA, co-cultured 1 week, 1 minute after application",100 µM
same,cortical spreading depression,[6],inhibitory effects on cortical spreading depression
same,cortical spreading depression,[6]; listed as Tonabersat,antagonize cortical spreading depression
same,hiPSC-MN survival (ChAT+ and Isl1+),control hiPSC-MN,did not have any effect on hiPSC-MN survival; also recorded: no effect on ChAT+ and Isl1+ control hiPSC-MN survival
same,release of IFNα and TNF,[7]; astrocyte cancer cell co-cultures,inhibited
same,dye transfer from astrocytes to cancer cells,[7],inhibited dye transfer from astrocytes to cancer cells
same,tolerability / safety,[8],well tolerated and safe
same,tolerability / safety,[8]; listed as Tonabersat,excellent safety profile
same,effect on attacks of migraine aura,[8]; study by Hauge and colleagues,preventive effect
same,efficacy on non-aura attacks,[8]; study by Hauge and colleagues,no efficacy
same,concentrations that specifically block Cx43 HC,Cx43 HC; low concentrations,1 to 10 µM
same,neuronal electrophysiological activity,hiPSC-MN alone,did not observe any change in neuronal electrophysiological activity; also recorded: does not result in an alteration of electrophysiological activity
same,"neuroprotection of hiPSC-MN (ChAT+, Isl1+)","[9]; transwell co-culture, 14 days",neuroprotective effect of tonabersat was also seen; also recorded: confirms dose-dependent neuroprotection
same,rescue of non-motor neuron cell death,[9]; transwell culture with FALS and SALS hiPSC-A,can be rescued with tonabersat
same,brain metastases,brain metastases,inhibited brain metastases
"KQIEIKKFK [Gap19, nonapeptide derived from the cytoplasmic loop of Cx43]",neuronal firing,"[1]; hiPSC-Astro/Neuron co-culture, 1 minute after application",reduced neuronal firing
same,neuroprotection against ALS astrocyte-induced MN toxicity,[10],can be neuroprotective
same,effect on gap junction channels,gap junction channels,without affecting gap junction channels
same,inhibition of astroglial Cx43 hemichannels,Cx43 HC,inhibits astroglial Cx43 hemichannels in a dose-dependent manner
